We go through eleven compounds from US20190016703A1, “BIFUNCTIONAL COMPOUNDS FOR HER3 DEGRADATION AND METHODS OF USE” (Dana-Farber Cancer Institute, Inc., priority 2015, published 2019).

Molecules are shown by their SMILES.

Assay [1] addresses T1, Her3 (Homo sapiens, UniProt P21860). Briefly: Her3 protein degradation by Western blot (immunoblotting). Format: cell-based. The note with it: PC9-GR4 or Ovacar 8 cell lines, 2 μM, 4 hours and 8 hours. Also noted: endogenous in cells; host or cells: PC9-GR4; Ovacar 8; key: +: Her3 protein was degraded; −: Her3 protein was not degraded. How it is done:
Cells are seeded at the desired density the day before treatment starts with bifunctional compounds of the application at various concentration. After 4 to 12 hrs, cells are washed with buffer and lysed. The lysates are centrifuged and the supernatant is collected. Protein concentrations are measured using a protein assay kit, such as the BCA protein assay kit, Pierce, catalog number 23225) and normalized. Samples are run on a SDS-PAGE gel, and transferred to a PVDF membrane. The PVDF membrane is probed with the appropriate antibody.
Her3 protein degradation was assessed via Western blots after treatment of PC9-GR4 cell lines or Ovacar 8 cell lines with 2 μM of representative compounds for 4 hours and 8 hours.
Cells were seeded at a density of 4×10̂5 per 6 cm plate the day before treatment started with representative compounds of the application at the indicated concentration. After 4 to 12 hrs, cells were washed with phosphate-buffered saline. Lysis buffer included 50 mM Tris-HCl, […], 150 mM NaCl, 1% NP-40, and 5 mM EDTA, pH 7.4+/−0.2, Roche PhosSTOP phosphatase inhibitor cocktail tablets and Roche Complete Protease inhibitor cocktail tablets. Cell lysis was accomplished by addition of lysis buffer for 5-10 min on ice. Lysates were centrifuged in a microcentrifuge at 14,000 r.p.m. for 15 min at 4° C., and the supernatant was collected. Protein concentrations were measured using BCA protein assay kit (Pierce, catalog number 23225) and normalized. Samples were run on a 4%-12% SDS-PAGE gel at 120 V. After transfer, the PVDF membrane was probed with anti-Her3 antibody, Santa Cruz, catalog number sc-285 at 1:1000 dilution.
For orientation: A western blot detects proteins with antibodies after separation by electrophoresis.

Assay [2] addresses T1, Her3. In words: LanthaScreen Eu kinase binding assay. Also noted: purchased Life Technologies. The note with it: read-out: Binding affinities (IC50). How it is done:
Lantha screening is performed by following the method reported in Nature Chemical Biology, 10, 1006-1012 (2014).
Binding affinities (IC 50) of representative compounds were measured by the Life Technologies LanthaScreen Eu kinase binding assay, which was previously reported (Xie T. et al., Nat. Chew. Biol. 2014, 10, 1006-1012).
Lantha screening was performed by following the method reported in Nature Chemical Biology, 10, 1006-1012 (2014).
A general note: In TR-FRET formats the signal depends on donor and acceptor labels being close together.

The next assay has as its system 826-GR6. Briefly: Anti-proliferation assay (MTS cell viability). It counts as cell-based. The note with it: 72 h, 826-GR6 cells, 3 d incubation, read-out: Cell lines (EC50, μM) 826-GR6. The method, then:
Cells are seeded and incubated for 3 d after bifunctional compounds of the application are added. Cell viability is measured via MTS Assay. This assay uses a colorimetric method to determine the number of viable cells based on the bioreduction of MTS by cells to a formazan product that is soluble in cell culture medium and can be detected spectrophotometrically. In a typical experiment, the supernatant is removed and replaced by 100 μl of RPMI media supplemented with MTS reagent and PMS. The plates are measured with Perkin Elmer EnVision after reaching an optical density (OD) of 1.0-2.0 at a wavelength of 490 nm. The cell numbers are normalized compared to DMSO control, and the EC50 values are calculated using GraphPad Prism.
Five cell lines, PC9-GR4, 826-GR6, Ovacar 8, A549, and Ovacar 5 were grown and treated with representative compounds. Viability of the cells after the treatment was assessed by MTS assay.
The anti-proliferation assay was carried out using 96-well clear bottom plates. […] Cell viability was measured via MTS Assay. This assay uses a colorimetric method to determine the number of viable cells based on the bioreduction of MTS by cells to a formazan product that is soluble in cell culture medium and can be detected spectrophotometrically. […] The plates were measured with Perkin Elmer EnVision after reaching an optical density (OD) of 1.0-2.0 at a wavelength of 490 nm. […]

T1 sequence (P21860 20-1342): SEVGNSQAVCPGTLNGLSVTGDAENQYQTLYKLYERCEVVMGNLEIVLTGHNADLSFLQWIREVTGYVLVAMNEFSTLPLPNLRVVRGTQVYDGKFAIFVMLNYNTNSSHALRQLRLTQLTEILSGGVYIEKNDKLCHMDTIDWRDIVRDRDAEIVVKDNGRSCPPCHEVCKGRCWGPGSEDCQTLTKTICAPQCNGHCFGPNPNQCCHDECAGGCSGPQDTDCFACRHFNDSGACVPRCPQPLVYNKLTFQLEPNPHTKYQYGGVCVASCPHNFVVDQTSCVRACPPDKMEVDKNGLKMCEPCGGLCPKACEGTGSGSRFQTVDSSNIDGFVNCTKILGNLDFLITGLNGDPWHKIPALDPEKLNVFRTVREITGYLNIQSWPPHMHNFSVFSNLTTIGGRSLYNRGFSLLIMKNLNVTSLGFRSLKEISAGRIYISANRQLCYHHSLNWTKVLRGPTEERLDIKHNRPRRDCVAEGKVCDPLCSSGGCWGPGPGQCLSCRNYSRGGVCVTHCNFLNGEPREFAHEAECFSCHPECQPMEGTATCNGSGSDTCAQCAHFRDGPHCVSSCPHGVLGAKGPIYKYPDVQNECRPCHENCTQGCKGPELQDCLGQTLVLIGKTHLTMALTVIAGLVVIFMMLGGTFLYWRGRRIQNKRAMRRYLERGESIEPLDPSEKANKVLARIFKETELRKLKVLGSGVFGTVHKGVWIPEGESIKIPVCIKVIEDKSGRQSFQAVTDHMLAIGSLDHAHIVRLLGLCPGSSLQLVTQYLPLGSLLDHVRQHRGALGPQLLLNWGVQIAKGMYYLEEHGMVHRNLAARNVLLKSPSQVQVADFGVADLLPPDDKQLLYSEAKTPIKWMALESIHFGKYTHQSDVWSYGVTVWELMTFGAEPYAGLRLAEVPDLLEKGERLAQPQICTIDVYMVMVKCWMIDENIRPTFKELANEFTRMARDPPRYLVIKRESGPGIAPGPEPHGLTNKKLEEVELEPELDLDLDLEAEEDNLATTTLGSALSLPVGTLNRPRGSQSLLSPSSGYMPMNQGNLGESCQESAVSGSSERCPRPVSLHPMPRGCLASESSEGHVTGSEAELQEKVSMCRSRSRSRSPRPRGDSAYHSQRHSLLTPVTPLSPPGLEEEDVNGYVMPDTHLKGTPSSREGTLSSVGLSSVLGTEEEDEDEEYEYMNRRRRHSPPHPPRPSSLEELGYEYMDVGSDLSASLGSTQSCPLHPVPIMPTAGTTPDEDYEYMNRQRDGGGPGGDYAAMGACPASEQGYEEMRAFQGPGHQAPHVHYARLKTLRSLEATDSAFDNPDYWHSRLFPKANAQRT

Turning to `COc1cc(Nc2c(C#N)cnc3cc(OCCCN4CCN(CC(=O)NCCOCCOCCOCCNC(=O)COc5cccc6c5C(=O)N(C5CCC(=O)NC5=O)C6=O)CC4)c(OC)cc23)c(Cl)cc1Cl` (stereo not drawn) [Compound CY1], the Her3 degradation result at Her3 [1] is reported as “−”. Further, the 50% inhibitory concentration (IC50) on Her3 [2] is less than 10 nM.
The corresponding values for `COc1cc(Nc2c(C#N)cnc3cc(OCCCN4CCN(C(=O)CCCNC(=O)COc5cccc6c5C(=O)N(C5CCC(=O)NC5=O)C6=O)CC4)c(OC)cc23)c(Cl)cc1Cl` (stereo not drawn) [Compound CY2] are “−” and less than 10 nM.
For `CCOc1cc2ncc(C#N)c(Nc3ccc(OCc4ccccn4)c(Cl)c3)c2cc1NC(=O)CCOCCOCCNc1cccc2c1C(=O)N(C1CCC(=O)NC1=O)C2=O` (stereo not drawn) [Compound CY3], the Her3 degradation entry on Her3 [1] was “−”.
For the compound `CCOc1cc2ncc(C#N)c(Nc3ccc(OCc4ccccn4)c(Cl)c3)c2cc1NC(=O)CCOCCOCCOCCNc1cccc2c1C(=O)N(C1CCC(=O)NC1=O)C2=O` (stereo not drawn) [Compound CY4], the Her3 degradation entry at Her3 [1] was “−”.
The same measure, in the same setting: the entry for `CCOc1cc2ncc(C#N)c(Nc3ccc(OCc4ccccn4)c(Cl)c3)c2cc1NC(=O)CCOCCOCCOCCOCCOCCNc1cccc2c1C(=O)N(C1CCC(=O)NC1=O)C2=O` (stereo not drawn) [Compound CY5] is “−”.
Consider `COc1cc(Nc2c(C#N)cnc3cc(OCCCN4CCN(CCOCCOCCNc5cccc6c5C(=O)N(C5CCC(=O)NC5=O)C6=O)CC4)c(OC)cc23)c(Cl)cc1Cl` (stereo not drawn) [Compound CY6], for which the half-maximal effective concentration (EC50) with 826-GR6 fell in the range of 5 to 15 µM. In addition, on Her3 [1], the Her3 degradation result is listed as “−”. On Her3 [2], the concentration for half-maximal inhibition (IC50) was less than 10 nM.
On to `COc1cc(Nc2c(C#N)cnc3cc(OCCCN4CCN(CCOCCOCCOCCNc5cccc6c5C(=O)N(C5CCC(=O)NC5=O)C6=O)CC4)c(OC)cc23)c(Cl)cc1Cl` (stereo not drawn) [Compound CY7], for which, in the assay with 826-GR6, the EC50 fell in the range of 5 to 15 µM. Also, at Her3 [1], the Her3 degradation entry was “−”. Besides, at Her3 [2], the IC50 is less than 10 nM.
For the compound `COc1cc(Nc2c(C#N)cnc3cc(OCCCOCCOCCOCCNc4cccc5c4C(=O)N(C4CCC(=O)NC4=O)C5=O)c(OC)cc23)c(Cl)cc1Cl` (stereo not drawn) [Compound CY8], the Her3 degradation entry at Her3 [1] is given as “−”.
With `COc1cc(Nc2c(C#N)cnc3cc(OCCCOCCOCCOCCOCCNc4cccc5c4C(=O)N(C4CCC(=O)NC4=O)C5=O)c(OC)cc23)c(Cl)cc1Cl` (stereo not drawn) [Compound CY9], the Her3 degradation result at Her3 [1] is recorded as “+”. Besides, at Her3 [2], the IC50 is 10 to 100 nM.
On to `COc1cc2ncnc(Nc3cccc(Cl)c3F)c2cc1OC1CCN(CC(=O)NCCOCCOCCNc2cccc3c2C(=O)N(C2CCC(=O)NC2=O)C3=O)CC1` (stereo not drawn) [Compound CY10], for which, at Her3 [1], the Her3 degradation result is “−”.
Still for that read-out and setting: the entry for `COc1cc2ncnc(Nc3cccc(Cl)c3F)c2cc1OC1CCN(CC(=O)NCCOCCOCCOCCNc2cccc3c2C(=O)N(C2CCC(=O)NC2=O)C3=O)CC1` (stereo not drawn) [Compound CY11] is “−”.

As a reminder, the IC50 is the concentration that inhibits the measured activity by half. A word on the EC50: it is the concentration that produces a half-maximal response.
